Where two headings read alike, the source gives them in different places.
Experiments:
[1] = test system: Xanthium strumarium (XANST, cocklebur); test: greenhouse pre-emergence herbicidal activity; type: in vivo; settings: read-out: observed % activity; for inhibition at 100 g/ha: 100 g ai/ha; for inhibition at 200 g/ha: 200 g ai/ha; for inhibition at 25 g/ha: 25 g ai/ha
Procedure: (§1) The containers were irrigated gently to promote germination and growth and subsequently covered with transparent plastic hoods until plant had rooted.
(§2) In the examples, the solvent used was water. […] In the examples, the solvent used was water.
(§3) Dicamba was used as a commercial aqueous solution having an active ingredient concentration of 480 g/l.
(§4) The test period extended over 21 days.
(§5) The evaluation for the damage caused by the chemical compositions was carried out using a scale from 0 to 100%, compared to the untreated control plants. Here, 0 means no damage and 100 means complete destruction of the plants.
(§6) The value E, which is to be expected if the activity of the individual compounds is just additive, was calculated using the method of S. R. Colby (1967) “Calculating synergistic and antagonistic responses of herbicide combinations”, Weeds 15, p. 22 ff. E=X+Y−(X·Y/100) where X=effect in percent using herbicide A at an application rate a; • Y=effect in percent using herbicide B at an application rate b; • E=expected effect (in %) of A+B at application rates a+b.
(§7) If the value observed in this manner is higher than the value E calculated according to Colby, a synergistic effect is present.

[2] = test system: Ambrosia artemisifolia (AMBEL, common ragweed); test: greenhouse pre-emergence herbicidal activity; type: in vivo; settings: read-out: observed % activity; for inhibition at 200 g/ha: 200 g ai/ha; for inhibition at 50 g/ha: 50 g ai/ha
Procedure: as §1, §2, §3, §4, §5, §6, §7

[3] = test system: Abutilon theophrasti (ABUTH, velvetleaf); test: greenhouse pre-emergence herbicidal activity; type: in vivo; settings: read-out: observed % activity; for inhibition at 200 g/ha: 200 g ai/ha; for inhibition at 25 g/ha: 25 g ai/ha; for inhibition at 50 g/ha: 50 g ai/ha
Procedure: as §1, §2, §3, §4, §5, §6, §7

[4] = test system: Helianthus annuus (HELAN, sunflower); test: greenhouse pre-emergence herbicidal activity; type: in vivo; settings: read-out: observed % activity; for inhibition at 50 g/ha: 50 g ai/ha; for inhibition at 100 g/ha: 100 g ai/ha; for inhibition at 200 g/ha: 200 g ai/ha; for inhibition at 25 g/ha: 25 g ai/ha
Procedure: as §1, §2, §3, §4, §5, §6, §7

[5] = test system: Matricaria inermis (MATIN, scentless mayweed); test: greenhouse pre-emergence herbicidal activity; type: in vivo; settings: read-out: observed % activity; for inhibition at 200 g/ha: 200 g ai/ha; for inhibition at 50 g/ha: 50 g ai/ha
Procedure: as §1, §2, §3, §4, §5, §6, §7

[6] = test system: Setaria faberii (SETFA, giant foxtail); test: greenhouse post-emergence herbicidal activity; type: in vivo; settings: Setaria faberi, read-out: observed % activity; for inhibition at 50 g/ha: 50 g ai/ha; for inhibition at 100 g/ha: 100 g ai/ha
From the text: (§8) For the post-emergence treatment, the test plants were first grown to a height of 3 to 20 cm, depending on the plant habit, and only then treated. Here, the herbicidal compositions were suspended or emulsified in water as distribution medium and sprayed using finely distributing nozzles.
as §2, §3, §4, §5, §6, §7

[7] = test system: Polygonum convolvulus (POLCO, wild buckwheat); test: greenhouse post-emergence herbicidal activity; type: in vivo; settings: 20 DAT
From the text: as §8, §2, §3, §4, §5, §6, §7

[8] = test system: Alopecurus myosuroides (ALOMY, blackgrass); test: greenhouse post-emergence herbicidal activity; type: in vivo; settings: read-out: observed % activity; for inhibition at 50 g/ha: 50 g ai/ha; for inhibition at 13 g/ha: 13 g ai/ha
From the text: as §8, §2, §3, §4, §5, §6, §7

[9] = test system: Ipomoea purpurea (PHBPU, tall morningglory); test: greenhouse post-emergence herbicidal activity; type: in vivo; settings: 20 DAT
From the text: as §8, §2, §3, §4, §5, §6, §7

[10] = test system: Echinochloa crus-galli (ECHCG, barnyardgrass); test: greenhouse post-emergence herbicidal activity; type: in vivo; settings: read-out: observed % activity; for inhibition at 100 g/ha: 100 g ai/ha; for inhibition at 13 g/ha: 13 g ai/ha
From the text: as §8, §2, §3, §4, §5, §6, §7

[11] = test system: Setaria lutescens (SETLU, yellow foxtail); test: greenhouse post-emergence herbicidal activity; type: in vivo; settings: read-out: observed % activity; for inhibition at 50 g/ha: 50 g ai/ha; for inhibition at 13 g/ha: 13 g ai/ha
From the text: as §8, §2, §3, §4, §5, §6, §7

harmful plants = settings: known from Y. Yamaji et al., 2006; cited from earlier work

COc1c(Cl)ccc(Cl)c1C(=O)O [dicamba]
inhibition at 100 g/ha ([1]; 192 h, 8 DAT): 50%
inhibition at 200 g/ha ([1]; 192 h, 8 DAT): 85%
inhibition at 100 g/ha ([1]; 480 h, 20 DAT): 80%
inhibition at 200 g/ha ([1]; 480 h, 20 DAT): 95%
inhibition at 200 g/ha ([2]; 192 h, 8 DAT): 65%
inhibition at 200 g/ha ([2]; 480 h, 20 DAT): 95%
inhibition at 200 g/ha ([3]; 192 h, 8 DAT): 40%
inhibition at 200 g/ha ([3]; 480 h, 20 DAT): 70%
inhibition at 50 g/ha ([4]; 192 h, 8 DAT): 30%
inhibition at 100 g/ha ([4]; 192 h, 8 DAT): 30%
inhibition at 200 g/ha ([4]; 192 h, 8 DAT): 75%
inhibition at 50 g/ha ([4]; 480 h, 20 DAT): 35%
inhibition at 100 g/ha ([4]; 480 h, 20 DAT): 50%
inhibition at 200 g/ha ([4]; 480 h, 20 DAT): 85%
inhibition at 200 g/ha ([5]; 192 h, 8 DAT): 50%
inhibition at 200 g/ha ([5]; 480 h, 20 DAT): 65%
inhibition at 50 g/ha ([6]; 168 h, 7 DAT): 25%
inhibition at 100 g/ha ([6]; 168 h, 7 DAT): 25%
inhibition at 50 g/ha ([6]; 480 h, 20 DAT): 0%
inhibition at 100 g/ha ([6]; 480 h, 20 DAT): 0%
observed activity in % destruction 20 days after treatment ([7]; 50 g ai/ha): 80%
inhibition at 50 g/ha ([8]; 168 h, 7 DAT): 10%
inhibition at 50 g/ha ([8]; 480 h, 20 DAT): 20%
observed activity in % destruction 20 days after treatment ([9]; 200 g ai/ha): 90%
inhibition at 100 g/ha ([10]; 168 h, 7 DAT): 20%
inhibition at 100 g/ha ([10]; 480 h, 20 DAT): 15%
inhibition at 50 g/ha ([11]; 168 h, 7 DAT): 40%
inhibition at 50 g/ha ([11]; 480 h, 20 DAT): 10%

Cn1nc(C(F)(F)F)c(CS(=O)(=O)C2=NOC(C)(C)C2)c1OC(F)F [pyroxasulfone, 3-[5-(difluoromethoxy)-1-methyl-3-(trifluoromethyl)pyrazol-4-ylmethylsulfonyl]-4,5-dihydro-5,5-dimethyl-1,2-oxazole]
post-emergence activity (harmful plants): only poor post-emergence activity
inhibition at 25 g/ha ([1]; 192 h, 8 DAT): 0%
inhibition at 25 g/ha ([1]; 480 h, 20 DAT): 0%
inhibition at 50 g/ha ([2]; 192 h, 8 DAT): 50%
inhibition at 50 g/ha ([2]; 480 h, 20 DAT): 80%
inhibition at 25 g/ha ([3]; 192 h, 8 DAT): 50%
inhibition at 50 g/ha ([3]; 192 h, 8 DAT): 50%
inhibition at 25 g/ha ([3]; 480 h, 20 DAT): 80%
inhibition at 50 g/ha ([3]; 480 h, 20 DAT): 98%
inhibition at 25 g/ha ([4]; 192 h, 8 DAT): 0%
inhibition at 50 g/ha ([4]; 192 h, 8 DAT): 0%
inhibition at 25 g/ha ([4]; 480 h, 20 DAT): 0%
inhibition at 50 g/ha ([4]; 480 h, 20 DAT): 0%
inhibition at 50 g/ha ([5]; 192 h, 8 DAT): 20%
inhibition at 50 g/ha ([5]; 480 h, 20 DAT): 85%
inhibition at 50 g/ha ([6]; 168 h, 7 DAT): 65%
inhibition at 50 g/ha ([6]; 480 h, 20 DAT): 90%
observed activity in % destruction 20 days after treatment ([7]; 100 g ai/ha): 55%
inhibition at 13 g/ha ([8]; 168 h, 7 DAT): 0%
inhibition at 13 g/ha ([8]; 480 h, 20 DAT): 15%
observed activity in % destruction 20 days after treatment ([9]; 13 g ai/ha): 30%
inhibition at 13 g/ha ([10]; 168 h, 7 DAT): 25%
inhibition at 13 g/ha ([10]; 480 h, 20 DAT): 80%
inhibition at 13 g/ha ([11]; 168 h, 7 DAT): 0%
inhibition at 13 g/ha ([11]; 480 h, 20 DAT): 65%

Source: patent US9253984B2, “Herbicidal compositions comprising pyroxasulfone VII” (BASF SE, priority 2008, dated 2016)
